According to patent US20140004209A1, “AUTOPHAGY INDUCER AND INHIBITOR COMBINATION THERAPY FOR THE TREATMENT OF NEOPLASMS” (GENENTECH, INC., priority 2010, published 2014):
Entries after “also recorded” stand apart in the source; their conditions may differ. Read-outs that look alike come from different tables or passages of the source.

What was measured:
PC3 cells [1] = experiment: Microarray analysis of autophagy gene expression in PC3 cells; format: cell-based, human; conditions: 1 or 5 μM for 6 or 24 hours, normalized to DMSO
Method: PC3 cells were induced to express shRNA to indicated Akt isoforms for 72 hours by Doxycycline, RNA was extracted from both Dox treated (Dox+) or untreated control (Dox−) cells. Microarray analysis was carried out using Affymetrix chips. Ratios of the expression levels of each autophagy gene from Dox+ and Dox− samples are shown. Data are mean values from 3 independent experiments.
RNA was extracted from the cells. Microarray analysis was carried out using Affymetrix chips. Expression levels of each autophagy gene are normalized to the DMSO controls. Data are mean values from 3 independent experiments.

[2] = Cell death in combination with CQ (FIG. 17); format: cell-based
[3] = tested on: PC3 (PTEN-, p53- and Al) cell line; experiment: CellTiter-Glo growth inhibition, III-4 and CQ combination; format: cell-based, human; conditions: 1:25 ratio
Text: (§1) FIG. 26B depicts the CI (combination index) by using bar graphs for data obtained by CellTiter-Glo assay at day 4 of treatment with 10% serum.
FIGS. 27A-B depicts data for the PC3 (PTEN-, p53- and Al) cell line.

[4] = tested on: MDA-361.1 (PI2-K mut (E545K), Her2+, HR+ and Luminal) cell line; experiment: as above; format: cell-based; conditions: 1:12.5 ratio
Text: as §1
FIGS. 28A-B depicts data for the MDA-361.1 (PI2-K mut (E545K), Her2+, HR+ and Luminal) cell line.

[5] = tested on: MDA-MB-231 (Kras, Braf, p53 mut, Triple- and Basal) cell line; experiment: as above; format: cell-based
Text: as §1

[6] = tested on: U87MG (PTEN-, PI3K mut (1391M)) cell line; experiment: as above; format: cell-based, human; conditions: 1:1.5 ratio
Method: as §1
FIGS. 30A-B depicts data for the U87MG (PTEN-, PI3K mut (1391M)) cell line.

multiple cell lines = experiment: ED50 of CQ, AKTi and combination by CellTiter-Glo in multiple cell lines; format: cell-based; conditions: day 4, 10% serum
Text: as §1

PC3 cells [7] = experiment: Autophagy markers in PC3 cells (EM AVs, GFP-LC3, LC3-II/LC3-I, MDC, AO); format: cell-based, human
Method: Western blot analysis, immunofluorescence, 1HC and TUNEL assay: For Western blot analysis, total protein lysates were subjected to SDS-PAGE and transferred to nitrocellulose. […] Detection and quantification were performed using an Odyssey infrared scanner (LICOR) using the manufacturer's software. For immunofluorescence staining, cells were fixed in 3% paraformaldehyde and permeabilized with 0.01% digitonin in PBS, followed by a rabbit polyclonal anti-LC3 (Abgent) primary antibody detected with a cy3-conjugated anti-rabbit secondary antibody (Jackson Immunoresearch). For IHC, formalin-fixed, paraffin-embedded specimens were collected. 5-μm-thick paraffin-embedded sections were stained using an anti-Ki-67 (MIB-1, DakoCytomation) antibody with the Dako ARK kit (Dako Corporation). Tissues were counterstained with haematoxylin, dehydrated, and mounted. In all cases, antigen retrieval was performed with the Dako Target Retrieval Kit as per manufacturer's instructions. For TUNEL assay, formalin-fixed, paraffin-embedded sections were stained using an in situ cell death detection kit (POD; Roche Diagnostic) according to the manufacturer's instructions.
Ultrathin sections were stained with uranyl acetate and lead citrate. Numbers of AV were counted on systematically sampled cytoplasmic areas of 4.5 μm^2 (n≧64 per condition). The percent AV area was measured by means of a square mesh grid laid over ≧5 sets of systematically sampled micrographs with each set covering a cytoplasmic area ≧80 μm^2. The average percent of apoptotic nuclei in tumor tissues was calculated from the number of apoptotic nuclei in 3 to 4 sets of 100 systematically counted tumor cell nuclei.
Multispectral imaging flow cytometry: Cells treated with various agents were stained with Acridine Orange and analyzed by the ImageStream system (Amnis Corporation, Seattle, Wash.) using the IDEAS image analysis program. The DNA AOGreen image and the vacuolar AO Red image were first compensated into separate channels, and then the percentage of apoptotic/anucleate cells (based on AO nuclear morphology and intensity) and vacuolated cells (AO Red+) were quantified. […] AORed Intensity is plotted on the second histogram with an arbitrary gate (R5) drawn to include events with the brightest AO Red intensity.

PC3 cells [8] = experiment: PC3 cell viability and cell death (PI exclusion, annexin V, caspase-3/7); format: cell-based, human; conditions: 0.5 μM III-5, 10 μM CQ, 0.5% FBS
Method: Cell viability and cell cycle analysis. Cell number and viability was measured using trypan blue exclusion assay using a Vi-Cell Analyzer (Beckman Coulter), or labeled with 1 μg/ml PI in PBS/1% BSA followed by cytofluorometric analysis with a fluorescence-activated cell sorter (FACS) (Becton Dickinson). FITC-conjugated Annexin V was used for the assessment of phosphatidylserine exposure by FACS analysis. Caspase activation was analyzed using a Caspase-Glo 3/7 Assay kit (Promega). For cell cycle analysis, cells were fixed with drop-wise addition of chilled 70% ethanol, washed with PBS and resuspended in staining solution containing 50 μg/ml PI and 60 units of RNAse A. DNA content was analyzed by flow cytometry using the FlowJo and ModFit software (Becton Dickinson).

class I PI3Ks and mTOR = conditions: cited from earlier work
class III PI3K = class III PI3K (Homo sapiens, UniProt Q8NEB9); conditions: cited from earlier work
Sequence of class III PI3K (Q8NEB9 whole entry): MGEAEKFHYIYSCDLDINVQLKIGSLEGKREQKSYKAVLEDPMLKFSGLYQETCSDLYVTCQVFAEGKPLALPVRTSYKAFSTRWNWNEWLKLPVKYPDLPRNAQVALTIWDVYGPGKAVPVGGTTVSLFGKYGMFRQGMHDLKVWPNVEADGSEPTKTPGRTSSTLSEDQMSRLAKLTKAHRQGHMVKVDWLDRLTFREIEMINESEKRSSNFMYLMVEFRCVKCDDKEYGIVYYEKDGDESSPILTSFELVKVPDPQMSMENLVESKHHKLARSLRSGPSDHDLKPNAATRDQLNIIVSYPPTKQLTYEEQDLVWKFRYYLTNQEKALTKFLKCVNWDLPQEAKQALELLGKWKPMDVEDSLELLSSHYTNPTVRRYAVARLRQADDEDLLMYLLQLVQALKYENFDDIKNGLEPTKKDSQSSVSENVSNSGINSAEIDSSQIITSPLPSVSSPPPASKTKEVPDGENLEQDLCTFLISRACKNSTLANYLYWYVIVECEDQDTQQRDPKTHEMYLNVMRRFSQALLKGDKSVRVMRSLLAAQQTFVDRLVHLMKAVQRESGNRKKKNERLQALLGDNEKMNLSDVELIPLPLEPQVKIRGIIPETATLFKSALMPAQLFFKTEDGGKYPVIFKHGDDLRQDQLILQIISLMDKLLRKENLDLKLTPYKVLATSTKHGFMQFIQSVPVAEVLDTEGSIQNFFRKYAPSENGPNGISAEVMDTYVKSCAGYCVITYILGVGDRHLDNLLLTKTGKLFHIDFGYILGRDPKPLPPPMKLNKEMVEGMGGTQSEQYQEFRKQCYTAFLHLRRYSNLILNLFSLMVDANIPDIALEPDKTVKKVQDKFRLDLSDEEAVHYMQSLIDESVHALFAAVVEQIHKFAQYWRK

SMILES	autophagy gene expression (PC3 cells [1])	interaction with CQ on cell death [2]	growth inhibition, III-4 and CQ combination vs single agents [3]	growth inhibition, III-4 and CQ combination vs single agents [4]	growth inhibition, III-4 and CQ combination vs single agents [5]	growth inhibition, III-4 and CQ combination vs single agents [6]	ED50 of combination with CQ vs single agents (multiple cell lines)	induction of AV accumulation / autophagy, agent alone (PC3 cells [7])	MDC+ vacuoles, III-5 in combination with CQ (PC3 cells [7]; 0.5 μM III-5, 10 μM CQ, 48 h)	induction of AV accumulation / autophagy, agent alone (PC3 cells [7]; listed as PI-103)	cell death, III-5 (PI-103) in combination with CQ (PC3 cells [8])	cell death, III-5 (PI-103) in combination with CQ (PC3 cells [8]; listed as PI-103)	inhibition of the class I PI3Ks and mTOR (class I PI3Ks and mTOR)	more potent on class I than class III PI3K (class III PI3K)	less potent on the class III PI3K (class III PI3K; relative to class I PI3Ks and mTOR)
CC(C)NC[C@@H](C(=O)N1CCN(c2ncnc3c2[C@H](C)C[C@H]3O)CC1)c1ccc(Cl)cc1 [III-4, (S)-2-(4-chlorophenyl)-1-(4-((5R,7R)-7-hydroxy-5-methyl-6,7-dihydro-5H-cyclopenta[d]pyrimidin-4-yl)piperazin-1-yl)-3-(isopropylamino)propan-1-one]	induce autophagy gene expression	synergize with CQ to accelerate cell death	the combination inhibits growth in the cell line at lower concentrations of III-4 than either III-4 alone or CQ alone	the combination inhibits growth in the cell line at lower concentrations of III-4 than either III-4 alone or CQ alone	the combination inhibits growth in the cell line at lower concentrations of III-4 than either III-4 alone or CQ alone	the combination inhibits growth in the cell line at lower concentrations of III-4 than either III-4 alone or CQ alone	significantly lowers the ED50 for both the AKTi and CQ	–	–	–	–	–	–	–	–
Oc1cccc(-c2nc(N3CCOCC3)c3oc4ncccc4c3n2)c1 [III-5]	–	–	–	–	–	–	–	potent at inducing the accumulation of AVs	CQ dramatically increased the size and number of MDC+ vacuoles	induced overt autophagy	CQ accelerated cell death in combination with III-5; also recorded: combination with CQ accelerated the death of cells	significantly accelerated death rate	nanomolar concentrations	1,000 ×	> 1,000 fold
